Experimental data reported in ChEMBL document CHEMBL1201862, “PubChem BioAssay data set” (2004).
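Cultured in 96-well plates, cells were exposed to test compound for 48 hours across five concentrations. GI50 marks 50% less growth.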 Activity calls are given as the source filed them. No stated cut-off is given here; in the data, active = GI50 up to about 1.1 µM and inactive = higher.

Assays:
Experiment in all cases: inhibition of tumour cell growth, NCI panel, 48 h
SF-268 = tested on: SF-268
UO-31 = tested on: UO-31
SK-MEL-28 = tested on: SK-MEL-28
EKVX = tested on: EKVX
UACC-62 = tested on: UACC-62
SW-620 = tested on: SW-620
IGROV-1 = tested on: IGROV-1
SR = tested on: SR
KM12 = tested on: KM12
HOP-92 = tested on: HOP-92
786-0 = tested on: 786-0
BT-549 = tested on: BT-549
Malme-3M = tested on: Malme-3M
HCT-15 = tested on: HCT-15
K562 = tested on: K562
MCF7 = tested on: MCF7
T47D = tested on: T47D
SF-539 = tested on: SF-539
HL-60 = tested on: HL-60
CCRF-CEM = tested on: CCRF-CEM

Row | SMILES | GI50 (SF-268) | GI50 (UO-31) | GI50 (SK-MEL-28) | GI50 (EKVX) | GI50 (UACC-62) | GI50 (SW-620) | GI50 (IGROV-1) | GI50 (SR) | GI50 (KM12) | GI50 (HOP-92) | GI50 (786-0) | GI50 (BT-549) | GI50 (Malme-3M) | GI50 (HCT-15) [µM] | GI50 (K562) | GI50 (MCF7) | GI50 (T47D) | GI50 (SF-539) | GI50 (HL-60) | GI50 (CCRF-CEM)
1 | c1cc(CNCCN2CCNCC2)ccn1 | > 100 µM (inactive) | > 100 µM (inactive) | > 100 µM (inactive) | > 100 µM (inactive) | > 100 µM (inactive) | > 100 µM (inactive) | > 100 µM (inactive) | > 100 µM (inactive) | > 100 µM (inactive) | > 100 µM (inactive) | > 100 µM (inactive) | > 100 µM (inactive) | > 100 µM (inactive) | > 100 | > 100 µM (inactive) | > 100 µM (inactive) | > 100 µM (inactive) | > 100 µM (inactive) | – | –
2 | CO[C@@]12C[C@H](CNC(=O)c3ccc[nH]3)O[C@@H]1NC(=O)N2 | > 100 µM (inactive) | > 100 µM (inactive) | > 100 µM (inactive) | > 100 µM (inactive) | > 100 µM (inactive) | > 100 µM (inactive) | > 100 µM (inactive) | > 100 µM (inactive) | > 100 µM (inactive) | > 100 µM (inactive) | > 100 µM (inactive) | > 100 µM (inactive) | > 100 µM (inactive) | > 100 | > 100 µM (inactive) | > 100 µM (inactive) | > 100 µM (inactive) | > 100 µM (inactive) | > 100 µM (inactive) | –
3 | CN1C(=O)N/C(=C\c2ccc(S(=O)(=O)N/N=C/c3ccccc3)cc2)C1=O | 26.8 µM (inactive) | 15.5 µM (inactive) | 38 µM (inactive) | 53.1 µM (inactive) | 28.9 µM (inactive) | 91.6 µM (inactive) | 42.1 µM (inactive) | 10.4 µM (inactive) | 15.7 µM (inactive) | 17.1 µM (inactive) | 34.8 µM (inactive) | 27.7 µM (inactive) | 45.5 µM (inactive) | 10.4 | 30 µM (inactive) | 19.1 µM (inactive) | 35.2 µM (inactive) | – | 4.93 µM (inactive) | 13.3 µM (inactive)
4 | CC(C)=CC(=O)c1[nH]c2ccccc2c1CC(=O)NCCc1cncn1C | 61.8 µM (inactive) | 21.4 µM (inactive) | > 100 µM (inactive) | 25.8 µM (inactive) | 61.9 µM (inactive) | 85.7 µM (inactive) | 47.4 µM (inactive) | 17.2 µM (inactive) | 55.7 µM (inactive) | 36.4 µM (inactive) | 98.9 µM (inactive) | 56.9 µM (inactive) | > 100 µM (inactive) | > 100 | 30.5 µM (inactive) | 42.4 µM (inactive) | 34.6 µM (inactive) | 60.7 µM (inactive) | – | 55.2 µM (inactive)
5 | O=C(O)c1cc(Cl)cc2c1NC1(N2)C(=O)Nc2ccccc21 (stereo not drawn) | 62.1 µM (inactive) | > 100 µM (inactive) | > 100 µM (inactive) | > 100 µM (inactive) | > 100 µM (inactive) | 73.6 µM (inactive) | 33.3 µM (inactive) | 65.8 µM (inactive) | > 100 µM (inactive) | > 100 µM (inactive) | > 100 µM (inactive) | > 100 µM (inactive) | 69.2 µM (inactive) | 45.4 | > 100 µM (inactive) | > 100 µM (inactive) | > 100 µM (inactive) | > 100 µM (inactive) | – | > 100 µM (inactive)
6 | CCOC(=O)c1ccc(/N=C2/C(=S)N(c3ccc(C(=O)OCC)cc3)C(=N)N2/N=C/c2ccccc2)cc1 | 16.2 µM (inactive) | 13.2 µM (inactive) | > 10 µM (inactive) | 27.1 µM (inactive) | 5.7 µM (inactive) | 1.51 µM (inactive) | 30.6 µM (inactive) | 3.52 µM (inactive) | 14.7 µM (inactive) | 15.9 µM (inactive) | 11.3 µM (inactive) | 17.5 µM (inactive) | 17.6 µM (inactive) | 27.3 | 3.7 µM (inactive) | 6.68 µM (inactive) | 2.77 µM (inactive) | 20.1 µM (inactive) | – | –
7 | COC(OC)C1OC(CO)C(n2ccc(N)nc2=O)C1O (stereo not drawn) | > 100 µM (inactive) | > 100 µM (inactive) | > 100 µM (inactive) | > 100 µM (inactive) | > 100 µM (inactive) | > 100 µM (inactive) | > 100 µM (inactive) | > 100 µM (inactive) | > 100 µM (inactive) | > 100 µM (inactive) | > 100 µM (inactive) | > 100 µM (inactive) | > 100 µM (inactive) | > 100 | > 100 µM (inactive) | > 100 µM (inactive) | > 100 µM (inactive) | > 100 µM (inactive) | – | > 100 µM (inactive)
8 | COP1(=O)NCc2ncccc2O1 (stereo not drawn) | – | > 100 µM (inactive) | > 100 µM (inactive) | > 100 µM (inactive) | > 100 µM (inactive) | > 100 µM (inactive) | > 100 µM (inactive) | > 100 µM (inactive) | > 100 µM (inactive) | > 100 µM (inactive) | > 100 µM (inactive) | > 100 µM (inactive) | – | > 100 | > 100 µM (inactive) | > 100 µM (inactive) | > 100 µM (inactive) | > 100 µM (inactive) | – | > 100 µM (inactive)
9 | CCOC(=O)c1ccc(OCc2nc3cc(C(F)(F)F)ccc3nc2-c2ccccc2)cc1 | > 100 µM (inactive) | > 100 µM (inactive) | > 100 µM (inactive) | > 100 µM (inactive) | > 100 µM (inactive) | > 100 µM (inactive) | > 100 µM (inactive) | 42.1 µM (inactive) | > 100 µM (inactive) | > 100 µM (inactive) | > 100 µM (inactive) | > 100 µM (inactive) | – | > 100 | 74.3 µM (inactive) | > 100 µM (inactive) | > 100 µM (inactive) | > 100 µM (inactive) | > 100 µM (inactive) | > 100 µM (inactive)
10 | O=P1(C(O)c2ccccc2)N(Cc2ccccc2)[C@@H]2CCCC[C@H]2N1Cc1ccccc1 (stereo partly drawn) | 25.6 µM (inactive) | 33 µM (inactive) | > 100 µM (inactive) | 30.5 µM (inactive) | 30.7 µM (inactive) | 33.9 µM (inactive) | 28.6 µM (inactive) | 24.3 µM (inactive) | 37.3 µM (inactive) | – | 20.8 µM (inactive) | 50.2 µM (inactive) | 30.7 µM (inactive) | 34.5 | 53.5 µM (inactive) | 34.6 µM (inactive) | 21.9 µM (inactive) | 21.5 µM (inactive) | 22.3 µM (inactive) | 34.8 µM (inactive)
11 | C/C(=N/NC(=S)N(Cc1ccccn1)Cc1ccccn1)c1cnccn1 | 0.418 µM (active) | – | 0.721 µM (active) | 0.189 µM (active) | 0.537 µM (active) | 0.288 µM (active) | 0.288 µM (active) | 0.578 µM (active) | 0.427 µM (active) | 1.23 µM (inactive) | 0.393 µM (active) | 0.646 µM (active) | 0.0472 µM (active) | 0.458 | 0.519 µM (active) | 0.565 µM (active) | 0.231 µM (active) | – | 0.126 µM (active) | 0.0551 µM (active)
12 | O=[N+]([O-])c1ccc(SN=S=NSc2cccc(SN=S=NSc3ccc([N+](=O)[O-])cc3)c2)cc1 | 33 µM (inactive) | 23.8 µM (inactive) | 35.7 µM (inactive) | 39.3 µM (inactive) | 37.8 µM (inactive) | 20.4 µM (inactive) | 39.8 µM (inactive) | 26.8 µM (inactive) | 34.2 µM (inactive) | > 100 µM (inactive) | 13.8 µM (inactive) | 19.3 µM (inactive) | 28.1 µM (inactive) | 17.7 | 25.2 µM (inactive) | 24.6 µM (inactive) | 11.1 µM (inactive) | – | 28.2 µM (inactive) | 6 µM (inactive)
13 | O=C(NNc1cn[nH]c(=O)n1)c1cccc2nc3ccccc3nc12 | 38.7 µM (inactive) | – | > 100 µM (inactive) | 35.8 µM (inactive) | 61.5 µM (inactive) | > 100 µM (inactive) | 38.2 µM (inactive) | 10.7 µM (inactive) | > 100 µM (inactive) | 45.2 µM (inactive) | 45.2 µM (inactive) | > 100 µM (inactive) | 47.5 µM (inactive) | > 100 | 47.9 µM (inactive) | > 100 µM (inactive) | > 100 µM (inactive) | 46.7 µM (inactive) | 22.4 µM (inactive) | 45.7 µM (inactive)
14 | C[C@H]1CC[C@@H]2[C@@H](C)[C@H]3[C@H](C[C@H]4[C@@H]5CC=C6C[C@@H](O)CC[C@]6(C)[C@H]5C[C@H](O)[C@]34C)N2C1 | > 100 µM (inactive) | > 100 µM (inactive) | > 100 µM (inactive) | > 100 µM (inactive) | > 100 µM (inactive) | > 100 µM (inactive) | > 100 µM (inactive) | > 100 µM (inactive) | > 100 µM (inactive) | > 100 µM (inactive) | > 100 µM (inactive) | > 100 µM (inactive) | > 100 µM (inactive) | > 100 | > 100 µM (inactive) | > 100 µM (inactive) | > 100 µM (inactive) | > 100 µM (inactive) | – | –
15 | CC1(C)OCC(/C=C\C(O)CC2(C)OCCO2)CO1 (stereo not drawn) | > 100 µM (inactive) | > 100 µM (inactive) | > 100 µM (inactive) | > 100 µM (inactive) | > 100 µM (inactive) | > 100 µM (inactive) | > 100 µM (inactive) | > 100 µM (inactive) | > 100 µM (inactive) | > 100 µM (inactive) | > 100 µM (inactive) | > 100 µM (inactive) | – | > 100 | > 100 µM (inactive) | > 100 µM (inactive) | > 100 µM (inactive) | > 100 µM (inactive) | > 100 µM (inactive) | –
